According to publication PMC8510812, “Studies on the Incompatibility between Bulbus fritillariae and Radix aconiti praeparata Based on the P-gp” (Evidence-based Complementary and Alternative Medicine : eCAM, 2021):
Read-outs that look alike come from different tables or passages of the source.

How the values were obtained:
ileum = experiment: Rat SPIP, Peff of monoester alkaloids in Radix aconiti praeparata extract with or without Bulbus fritillariae; assay type: in vivo; conditions: n = 6, Figure 3
Procedure: (§1) Rats were anaesthetized by an intraperitoneal injection of urethane and then placed on a heated pad. The small intestine was exposed by surgery. 10 cm of the ileum segment was ligated and cannulated with glass tubing for perfusion. Caroline et al. reported that the level of P-gp expression in rat ileum was the highest. In order to better reflect the characteristics of P-gp, we selected the ileum segment. The cannulated segment was rinsed with saline (37°C), and attached to the perfusion assembly consisted of a syringe pump and a 50 ml syringe. The selected ileum was placed as “U” shape and covered with the gauze wet by saline. The perfusate was collected every 10 min at a flow rate of 0.2 ml/min for 90 min. The perfused intestine segment was removed and opened along the mesentery to measure the area. Samples were frozen immediately and stored at -20°C until analysis. Digoxin, an exclusive substrate of P-gp, was chosen as the FDA guidelines.
The concentrations of drugs in SPIP experiment were determined by HPLC. A MS-C18 column (5 μm, 4.6 mm × 150 mm, Agilent, USA) with an analytical TC-C18 guard column (5 μm, 4.6 mm × 12.5 mm, Agilent, USA) was maintained at 30°C. The analytical mobile phase about digoxin consisted of water and acetonitrile in a 75 : 25 (v/v) ratio. Benzoylaconine, benzoylmesaconine, and benzoylhypacoitine consisted of 0.05% acetic acid and methanol in a gradient from 85 : 15 to 55 : 45 (v/v) ratio. The flow rate was 1 mL/min. The injection volume was 10 µL. Digoxin was detected by absorbance at 220 nm and benzoylaconine, benzoylmesaconine, and benzoylhypacoitine at 235 nm.
P eff was calculated by the following equation:(1) Peff=−QinlnCoutQout/CinQin/2πrL. Here, Qin and Qout were the flow rate at inlet and outlet, respectively. Cin and Cout were the concentration at inlet and outlet, respectively. 2πrL was the mass transfer surface area within the intestinal segment, which was assumed to be the area of the cylinder with the radius (r) and length (L).

P-gp [1] = assay type: in vivo, rat; conditions: in the presence of verapamil, n = 6, Figure 10
Procedure: as §1
The concentrations of drugs in SPIP experiment were determined by HPLC. A MS-C18 column (5 μm, 4.6 mm × 150 mm, Agilent, USA) with an analytical TC-C18 guard column (5 μm, 4.6 mm × 12.5 mm, Agilent, USA) was maintained at 30°C. […] Digoxin was detected by absorbance at 220 nm and benzoylaconine, benzoylmesaconine, and benzoylhypacoitine at 235 nm.
P eff was calculated by the following equation:(1) Peff=−QinlnCoutQout/CinQin/2πrL. […]

P-gp [2] = target: T1, P-gp (Homo sapiens, UniProt P08183); assay type: cell-based; conditions: MDR1-MDCK cells, n = 3
T1 construct: host or cells: MDR1-MDCK cells
T1 sequence (P08183 whole entry): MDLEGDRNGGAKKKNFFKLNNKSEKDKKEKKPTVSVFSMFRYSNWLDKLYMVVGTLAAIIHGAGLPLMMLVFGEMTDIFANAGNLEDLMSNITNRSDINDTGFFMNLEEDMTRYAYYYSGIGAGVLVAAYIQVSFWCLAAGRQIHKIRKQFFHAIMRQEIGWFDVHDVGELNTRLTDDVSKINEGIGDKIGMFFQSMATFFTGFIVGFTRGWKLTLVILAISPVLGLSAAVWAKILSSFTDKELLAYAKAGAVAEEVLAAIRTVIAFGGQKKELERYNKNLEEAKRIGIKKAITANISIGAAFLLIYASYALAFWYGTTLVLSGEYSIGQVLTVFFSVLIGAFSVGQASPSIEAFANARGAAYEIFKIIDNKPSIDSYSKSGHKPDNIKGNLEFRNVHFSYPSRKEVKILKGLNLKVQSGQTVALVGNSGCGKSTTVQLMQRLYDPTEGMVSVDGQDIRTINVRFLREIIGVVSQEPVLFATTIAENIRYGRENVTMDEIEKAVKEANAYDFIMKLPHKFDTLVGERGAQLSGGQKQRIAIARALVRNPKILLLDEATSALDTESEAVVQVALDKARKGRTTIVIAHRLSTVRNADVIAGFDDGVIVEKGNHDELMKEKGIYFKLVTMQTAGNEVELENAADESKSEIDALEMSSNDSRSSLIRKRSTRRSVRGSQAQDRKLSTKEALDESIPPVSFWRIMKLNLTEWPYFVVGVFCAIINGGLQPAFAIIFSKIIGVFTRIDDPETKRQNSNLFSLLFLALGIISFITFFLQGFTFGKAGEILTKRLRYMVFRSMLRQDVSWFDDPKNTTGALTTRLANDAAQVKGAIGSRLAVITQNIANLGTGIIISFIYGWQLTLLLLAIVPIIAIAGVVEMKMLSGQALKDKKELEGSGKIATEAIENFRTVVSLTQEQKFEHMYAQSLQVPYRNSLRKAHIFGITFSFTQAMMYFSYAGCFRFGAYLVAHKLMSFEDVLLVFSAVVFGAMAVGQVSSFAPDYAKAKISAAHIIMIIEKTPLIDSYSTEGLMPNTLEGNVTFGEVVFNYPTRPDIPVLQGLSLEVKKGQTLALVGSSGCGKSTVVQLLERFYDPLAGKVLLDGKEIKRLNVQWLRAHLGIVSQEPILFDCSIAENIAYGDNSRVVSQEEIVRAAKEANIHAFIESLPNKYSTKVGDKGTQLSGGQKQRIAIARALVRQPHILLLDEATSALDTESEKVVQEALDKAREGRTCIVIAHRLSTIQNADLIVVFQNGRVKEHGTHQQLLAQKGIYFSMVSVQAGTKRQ
Procedure: MDR1-MDCK cells, obtained from the College of Pharmaceutical Sciences in Zhejiang University (China), were cultured in DMEM containing 10% FBS, 100 µg/mL-100 U/mL penicillin-streptomycin, and 1% NEAA at 37°C in an atmosphere of 5% CO2 and 95% relative humidity. Cells were passaged at 80%–90% conﬂuence. P-gp inhibitors were screened by MDR1-MDCK cell transport study using the calcein-AM kit. Briefly, the cells were seeded in a 96-well black opaque plate and cultured for 48 h. Then, the cells were washed twice with PBS. 100 µL drug and 50 µL culture medium was added and preincubated at 37°C for 10 min. 50 µL 1 µM calcein-AM was added and incubated at 37°C for 1 h. Cold PBS was used to terminate the reaction. 100 µL 0.1% Triton-100 was added for cell permeability.
RFR was calculated by (4) RFR=RFU TS/RFU CS×100%. Here, RFU TS was the RFU of the test sample and RFU CS was the RFU of the control sample.

Structure (SMILES) | Peff of monoester alkaloid in Radix aconiti praeparata extract versus Radix aconiti praeparata + Bulbus fritillariae cirrhosae extract (ileum) | Peff of monoester alkaloid in Radix aconiti praeparata extract versus Radix aconiti praeparata + Bulbus fritillariae thunbergii extract (ileum) | Peff of monoester alkaloid in Radix aconiti praeparata extract versus that supplemented with verapamil (P-gp [1]) | RFR of calcein versus control group (P-gp [2]; high-dose group) | RFR of calcein versus control group (P-gp [2]; low-dose group)
CCN1C[C@]2(COC)[C@H](O)C[C@H](OC)[C@@]34[C@@H]5C[C@@]6(O)[C@H](OC(=O)c7ccccc7)[C@@H]5[C@@](O)([C@@H]([C@H](OC)[C@H]23)[C@@H]14)[C@@H](O)[C@@H]6OC [Benzoylaconine] | No significant differences | No significant differences | No significant differences | – | –
COC[C@@]12CC[C@H](OC)[C@]34C([C@H]([C@H](OC)[C@H]13)[C@]1(O)[C@H]3[C@@H](OC(=O)c5ccccc5)[C@](O)(C[C@H]34)[C@@H](OC)[C@@H]1O)N(C)C2 [Benzoylhypacoitine] | No significant differences | No significant differences | No significant differences | – | –
COC[C@]12CN(C)C3[C@@H]4[C@H](OC)[C@H]1[C@@]3([C@@H](OC)C[C@H]2O)[C@@H]1C[C@@]2(O)[C@H](OC(=O)c3ccccc3)[C@@H]1[C@]4(O)[C@@H](O)[C@@H]2OC [Benzoylmesaconine] | significant differences | – | – | – | –
C[C@H]1CC[C@@H]2N(C1)C[C@H]1[C@@H]3C[C@H]4[C@@H](C[C@H](O)[C@H]5C[C@@H](O)CC[C@@]54C)[C@@H]3CC[C@@H]1[C@]2(C)O [Peimine] | – | – | – | highly significant differences | no significant differences
C[C@H]1CCC2N(C1)C[C@H]1C3CC4[C@@H](CC(=O)C5C[C@@H](O)CC[C@@]54C)C3CCC1[C@]2(C)O (stereo partly shown) [Peiminine] | – | – | – | no significant differences | no significant differences
CC1=C2C[C@H]3[C@@H](CC(=O)[C@H]4C[C@@H](O)CC[C@@]43C)[C@@H]2CC[C@]12O[C@@H]1C[C@H](C)CN[C@H]1[C@H]2C [Peimisine] | – | – | – | highly significant differences | highly significant differences
